Values joined by “and” are separate entries in the source; they are usually repeats but may differ in a detail not shown here. Equal entries are not always repeated. Where two headings read alike, the source gives them in different places.
Key:
[1] = system: B. subtilis PypuA-lacZ (cell wall) bioreporter; test: β-Galactosidase reporter assay, cell wall reporter; type: cell-based, Bacillus subtilis; settings: 10 µg THCz-1, 20 µg THCz-40, 80 µg THCz-39, 100 µg THCz-5 spotted on agar
B. subtilis 168 = test: Bacterial cell wall integrity assay; type: cell-based, Bacillus subtilis; settings: 30 min exposure; phase-contrast microscopy
S. pneumoniae = test: MIC, broth microdilution; type: cell-based, Streptococcus pneumoniae; settings: for reduction in MIC in comparison to THCz-1: S. pneumoniae T4, vs. original screening hit THCz-1; for MIC: Streptococcus pneumoniae, S. pneumoniae T4 in supplemented C+Y medium, most abundant MIC, Table 2
[2] = system: Lung epithelial A549 cells; test: cells; settings: Homo sapiens
PBP2 = test: PBP2-catalyzed transglycosylation of lipid II in vitro; type: biochemical, S. aureus; settings: compared to THCz-1 and THCz-40
S. pneumoniae T4 = test: Lysis and killing kinetics; settings: THCz-1 5.1 µg/mL, penicillin G 0.06 μg/mL, tetracycline 2 μg/mL
[3] = system: Lung epithelial A549 cells
[4] = system: B. subtilis PliaI-lux LiaRS bioreporter; test: Luciferase reporter assay; type: cell-based, Bacillus subtilis; settings: 2 µg/mL THCz-1, 128 µg/mL THCz-5, 8 µg/mL THCz-39, 4 µg/mL THCz-40
B. subtilis GFP-MinD = test: MinD delocalization studies; type: cell-based, Bacillus subtilis; settings: within 5 min

Compound | induction of the cell wall responsive reporter strain [1] | cell shape deformations / cell membrane blebbing (B. subtilis 168) | MIC (S. pneumoniae) | IC50 [2] | further results
Cc1ccc2[nH]c3c(c2c1)CCCC3NCCc1ccc(Br)cc1 (centres unmarked) [THCz-40] | specifically induced | induced characteristic cell shape deformations | 6.3 µM and 2.4 µg/mL | 28 µM and 10.7 µg/mL | reduction in MIC in comparison to THCz-1 (S. pneumoniae): twofold to fourfold
c1ccc(CCNC2CCCc3c2[nH]c2ccccc32)cc1 (centres unmarked) [THCz-19] |  |  | 6.3 µM and 1.9 µg/mL | 22.2 µM and 6.8 µg/mL | 
Cc1ccc2[nH]c3c(c2c1)CCCC3NCCc1ccc(O)cc1 (centres unmarked) [THCz-39] | specifically induced | induced characteristic cell shape deformations | 6.3 µM to 12.5 µM and 2 µg/mL to 4 µg/mL | 33.4 µM and 10.7 µg/mL | reduction in MIC in comparison to THCz-1 (S. pneumoniae): twofold to fourfold; higher concentration required for full inhibition of the PBP2-catalyzed reaction (PBP2): fourfold
nisin (ITSISLCTPGCKTGALMGCNMKTATCHCSIHVSK; not fully specified; Lantibiotic nisin-A; UniProt P13068 24-57, looked up) |  | Membrane blebbing was also observed |  |  | 
CN(C)[C@@H]1C(O)=C(C(N)=O)C(=O)[C@@]2(O)C(O)=C3C(=O)c4c(O)cccc4[C@@](C)(O)[C@H]3C[C@@H]12 [Tet, tetracycline] |  |  |  |  | lysis kinetics (S. pneumoniae T4): growth-inhibitory phenotype without any prominent lysis
bacitracin |  | Membrane blebbing was also observed |  |  | 
c1ccc(CCNC2CCCc3c2oc2ccc(-c4ccccc4)cc32)cc1 (centres unmarked) [THCz-6] |  |  | 50 µM and 18.4 µg/mL | 134 µM and 49.3 µg/mL | increase of IC50 (cytotoxicity) ([3]; THCz-6 vs. THCz-2): about sevenfold
c1ccc(CCOC2CCCc3c2[nH]c2ccccc32)cc1 (centres unmarked) [THCz-5] | but not THCz-5 |  | > 100 µM and > 29.1 µg/mL | 141 µM and 41 µg/mL | induction of PliaI-lux bioluminescence (LiaRS stress response) [4]: except for the inactive analog THCz-5; delocalization of GFP-MinD (membrane depolarization) (B. subtilis GFP-MinD): MinD delocalization was also observed; increase of IC50 (cytotoxicity) ([3]; THCz-5 vs. THCz-19): about sixfold
CN[C@H](CC(C)C)C(=O)N[C@H]1C(=O)N[C@@H](CC(N)=O)C(=O)N[C@H]2C(=O)N[C@H]3C(=O)N[C@H](C(=O)N[C@H](C(=O)O)c4cc(O)cc(O)c4-c4cc3ccc4O)[C@H](O)c3ccc(c(Cl)c3)Oc3cc2cc(c3O[C@@H]2O[C@H](CO)[C@@H](O)[C@H](O)[C@H]2O[C@H]2C[C@](C)(N)[C@H](O)[C@H](C)O2)Oc2ccc(cc2Cl)[C@H]1O [vancomycin] |  | Membrane blebbing was also observed |  |  | 

Reference: article PMC8617507 (Proceedings of the National Academy of Sciences of the …, 2021)
